Test results published in patent US20170349532A1, “CATIONIC LIPID” (Kyowa Hakko Kirin Co., Ltd., priority 2011, published 2017).

test: Average particle diameter of preparation (Zetasizer Nano ZS); assay type: physicochemical; details: Comparative Examples 1 to 8, prepared as Example 118 with apo-b siRNA
Text: Preparations were produced using the compounds obtained in Examples 1 to 117, as follows.
APO-B siRNA was used as the nucleic acid. APO-B siRNA suppresses expression of an apolipoprotein-B (hereinafter, “apo-b”) gene and has a sense strand with the base sequence 5′-GmUCAmUCACACmUGAAmUACCAAmU-3′ (the sugars attached to the bases appended with m are 2′-O-methyl-substituted riboses), and an antisense strand with the base sequence 5′-[…]-3′ (the 5′-end is phosphorylated). The sense strand and the antisense strand were obtained from Nippon EGT, GeneDesign, Inc., Invitrogen or Hokkaido System Science Co., Ltd., and annealed to prepare the nucleic acid (hereinafter, “apo-b siRNA”).
A solution comprising the constituent components was prepared by dissolving each of the weighed samples in 90 vol % ethanol in 8.947/1.059/5.708/13.697 mmol/L [compounds 1 to 117 obtained in Examples 1 to 117/sodium 1,2-dimyristoyl-sn-glycero-3-phosphoethanolamine-N-(methoxy(polyethylene glycol)-2000) (PEG-DMPE Na,N-(carbonylmethoxypolyethylene glycol 2000)-1,2-dimyristoyl-sn-glycero-3-phosphoethanolamine sodium salt, NOF Corporation)/distearoylphosphatidyl choline (DSPC, 1,2-distearoyl-sn-glycero-3-phosphocholine, NOF Corporation)/cholesterol (Avanti Polar Lipids)]. Separately, apo-b siRNA/distilled water (24 mg/mL) was diluted with a Tris-EDTA buffer (200 mM Tris-HCl, 20 mM EDTA, Invitrogen) and a 20 mM citric acid buffer (pH 5.0) to prepare a 1.5 mg/mL apo-b siRNA aqueous solution (2 mM Tris-EDTA/20 mM citric acid buffer, pH 5.0).
The resulting lipid solution was heated to 37° C., and a 100-μL portion was transferred to a preparation container. The apo-b siRNA aqueous solution (100 μL) was then added thereto while being stirred. Then, a 20 mM citric acid buffer (containing 300 mM NaCl, pH 6.0; 200 μL) was added to the lipid nucleic acid mixed suspension (200 μL) while being stirred. The siRNA concentration was brought to 10 μM by dropping a Dulbecco phosphate buffer (DPBS, Invitrogen; 662 μL), and preparations (compositions comprising compounds 1 to 117 and the nucleic acid) were obtained.
The average particle diameter of the complex between the cationic lipis and the nucleic acid in each preparation was measured with a particle diameter measurement device (Malvern; Zetasizer Nano ZS).

Compound | average particle diameter of the complex between the cationic lipis and the nucleic acid in the preparation [nm]
CCCCCCCC/C=C\CCCCCCCC(=O)OCC(C[N+](C)(C)C)OC(=O)CCCCCCC/C=C\CCCCCCCC.[Cl-] (centres unmarked) [Compound A-1, N(2,3-di-(9-(Z)-octadecenoyloxy))-prop-1-yl-N,N,N-trimethylammonium chloride, reference compound] | 104.0

same assay, conditions: average particle diameter of cationic lipid/nucleic acid complex; Example 118 preparation: compound/PEG-DMPE Na/DSPC/cholesterol with apo-b siRNA

Compound | Particle diameter of Preparetion [nm]
CCCCC/C=C\C/C=C\CCCCCCCCO[C@@H]1CN(C(=O)CCN)C[C@H]1OCCCCCCCC/C=C\C/C=C\CCCCC [Compound 62, (3R,4R)-1-(3-Aminopropanoyl)-3,4-bis((9Z,12Z)-octadec-9,12-dienyloxy)pyrrolidine] | 151.3
CCCCCCCCCCCCCCO[C@@H]1CNC[C@H]1OCCCCCCCCCCCCCC [Compound 5, (3R,4R)-3,4-bis(Tetradecyloxy)pyrrolidine] | 154.2
CCCCCCCCCCC/C=C\CCCCCOCCN(C)CCOCCCCC/C=C\CCCCCCCCCCC [Compound 36, N-Methyl-N,N-bis(2-((Z)-octadec-6-enyloxy)ethyl)amine] | 137.2
CCCCCCCC/C=C\CCCCCCCCOCC[N+](C)(C)CCOCCCCCCCC/C=C\CCCCCCCC.[Cl-] [Compound 80, N,N-diMethyl-N,N-bis(2-((Z)-octadec-9-enyloxy)ethyl)aminium chloride] | 110.3
CCCCC/C=C\C/C=C\CCCCCCCCO[C@@H]1CN(CCCO)C[C@H]1OCCCCCCCC/C=C\C/C=C\CCCCC [Compound 56, 3-((3R,4R)-3,4-bis((9Z,12Z)-Octadec-9,12-dienyloxy)pyrrolidin-1-yl)propan-1-ol] | 120.3
CCCCCCCC/C=C\CCCCCCCCOCCN(CCOCCCCCCCC/C=C\CCCCCCCC)CC(O)CO (centres unmarked) [Compound 82, 3-(bis(2-((Z)-Octadec-9-enyloxy)ethyl)amino)propan-1,2-diol] | 125.7
CCCCCCCCCCCCCCCCOCCNCCOCCCCCCCCCCCCCCCC [Compound 70, bis(2-(Hexadecyloxy)ethyl)amine] | 145.6
CCCCC/C=C\C/C=C\CCCCCCCCO[C@@H]1CN(C(=O)CCCCCN)C[C@H]1OCCCCCCCC/C=C\C/C=C\CCCCC [Compound 64, (3R,4R)-1-(6-Aminohexanoyl)-3,4-bis((9Z,12Z)-octadec-9,12-dienyloxy)pyrrolidine] | 146.0
CCCCCCCCCCCCCCCCCCOCCNCCOCCCCCCCCCCCCCCCCCC [Compound 71, bis(2-(Octadecyloxy)ethyl)amine] | 148.4
CCCCCCCCCCCCCCCCCCO[C@@H]1CNC[C@H]1OCCCCCCCCCCCCCCCCCC [Compound 39, (3R,4R)-3,4-bis(Octadecyloxy)pyrrolidine] | 444.5
CCCCCCCC/C=C\CCCCCCCCO[C@@H]1CNC[C@H]1OCCCCCCCC/C=C\CCCCCCCC [Compound 4, (3R,4R)-3,4-bis((Z)-Octadec-9-enyloxy)pyrrolidine] | 160.6
CCCCCCCC/C=C\CCCCCCCCOCCN(CCOCCCCCCCC/C=C\CCCCCCCC)CCC(=O)N(C)C [Compound 85, 3-(bis(2-((2)-Octadec-9-enyloxy)ethyl)amino)-N,N-dimethylpropanamide] | 120.1
CCCCC/C=C\C/C=C\CCCCCCCCO[C@@H]1CN(CCCN(C)C)C[C@H]1OCCCCCCCC/C=C\C/C=C\CCCCC [Compound 59, (3R,4R)-1-(3-N,N-Dimethylaminopropyl)-3,4-bis((9Z,12Z)-octadec-9,12-dienyloxy)pyrrolidine] | 116.7
CCCCCCCC/C=C\CCCCCCCC(=O)OCCN(CCOC(=O)CCCCCCC/C=C\CCCCCCCC)C(=O)CN [Compound 95, 2-Amino-N,N-bis(2-((Z)-octadec-9-enoyloxy)ethyl)acetamide] | 128.3
CCCCCCCC/C=C\CCCCCCCC(=O)OCCNCCOC(=O)CCCCCCC/C=C\CCCCCCCC [Compound 73, N,N-bis(2-((Z)-Octadec-9-enoyloxy)ethyl)amine] | 146.8
CCCCCCCC/C=C\CCCCCCCC(=O)O[C@@H]1CN(C(=O)CCN(C)C)C[C@H]1OC(=O)CCCCCCC/C=C\CCCCCCCC [Compound 30, (3R,4R)-1-(3-(Dimethylamino)propanoyl)pyrrolidine-3,4-diyl di((Z)-octadec-9-enoate)] | 132.7

Compound | Particle diameter of Preparetion [nm]
CCCCC/C=C\C/C=C\CCCCCCCC(=O)O[C@@H]1CN(C(=O)[C@@H](N)CCCCN)C[C@H]1OC(=O)CCCCCCC/C=C\C/C=C\CCCCC [Compound 66, (3R,4R)-1-((S)-2,6-Diaminohexanoyl)pyrrolidine-3,4-diyl di((9Z,12Z)-octadec-9,12-enoate)] | 137.4
CCCCC/C=C\C/C=C\CCCCCCCC(=O)O[C@@H]1CN(C(=O)CN)C[C@H]1OC(=O)CCCCCCC/C=C\C/C=C\CCCCC [Compound 65, (3R,4R)-1-(2-aminoacetyl)pyrrolidine-3,4-diyl di((9Z,12Z)-octadec-9,12-enoate)] | 128.9
CCCCCCCC/C=C\CCCCCCCCOCCN(CCOCCCCCCCC/C=C\CCCCCCCC)C(=O)CN(C)C [Compound 89, 2-(Dimethylamino)-N,N-bis(2-((Z)-octadec-9-enyloxy)ethyl)acetamide] | 121.5
CCCCC/C=C\C/C=C\CCCCCCCCO[C@@H]1CN(C(=O)[C@@H](N)CCCCN)C[C@H]1OCCCCCCCC/C=C\C/C=C\CCCCC [Compound 31, (3R,4R)-1-((5)-2,6-Diaminohexanoyl)-3,4-bis((9Z,12Z)-octadec-9,12-dienyloxy)pyrrolidine] | 100.7
CCCCCCCC/C=C\CCCCCCCC(=O)OC[C@@H]1CN(C)C[C@H]1COC(=O)CCCCCCC/C=C\CCCCCCCC (relative stereo) [Compound 109, trans-1-Methyl-3,4-bis(((Z)-octadec-9-enoyloxy)methyl)pyrrolidine] | 129.6
CCCCCCCC/C=C\CCCCCCCCCCO[C@@H]1CN(C)C[C@H]1OCCCCCCCCCC/C=C\CCCCCCCC [Compound 49, (3R,4R)-3,4-bis((Z)-Icos-11-enyloxy)-1-methylpyrrolidine] | 141.7
CCCCCCCC/C=C\CCCCCCCCOCCN(CCOCCCCCCCC/C=C\CCCCCCCC)C(=O)CCN [Compound 87, 3-Amino-N,N-bis(2-((Z)-octadec-9-enyloxy)ethyl)propanamido] | 136.3
CCCCCCCC/C=C\CCCCCCCCCCOCCN(C)CCOCCCCCCCCCC/C=C\CCCCCCCC [Compound 78, N,N-bis(2-((Z)-Icos-11-enyloxy)ethyl)-N-methylamine] | 131.4
CCCCCCCC/C=C\CCCCCCCCOCCN(C)CCOCCCCCCCC/C=C\CCCCCCCC [Compound 33, N-Methyl-N,N-bis(2-((Z)-octadec-9-enyloxy)ethyl)amine] | 152.1
CCCCCCCC/C=C\CCCCCCCC(=O)OC[C@@H]1C[N+](C)(C)C[C@H]1COC(=O)CCCCCCC/C=C\CCCCCCCC.[Cl-] (relative stereo) [Compound 113, trans-1,1-Dimethyl-3,4-bis(((Z)-octadec-9-enoyloxy)methyl)pyrrolidinium chloride] | 103.5
CCCCCCCCCCCCCCO[C@@H]1CN(C)C[C@H]1OCCCCCCCCCCCCCC [Compound 13, (3R,4R)-1-Methyl-3,4-bis(tetradecyloxy)pyrrolidine] | 150.2
CCCCC/C=C\C/C=C\CCCCCCCC(=O)OC[C@@H]1CNC[C@H]1COC(=O)CCCCCCC/C=C\C/C=C\CCCCC (relative stereo) [Compound 105, trans-3,4-bis(((9Z,12Z)-Octadec-9,12-dienoyloxy)methyl)pyrrolidine] | 125.6
CCCCCCCC/C=C\CCCCCCCC(=O)OCCN(CCOC(=O)CCCCCCC/C=C\CCCCCCCC)C(=O)CCN(C)C [Compound 99, 3-(Dimethylamino)-N,N-bis(2-((Z)-octadec-9-enoyloxy)ethyl)propanamido] | 129.6
CCCCC/C=C\C/C=C\CCCCCCCCOCCN(C)CCOCCCCCCCC/C=C\C/C=C\CCCCC [Compound 32, N-Methyl-N,N-bis(2-((9Z,12Z)-octadec-9,12-dienyloxy)ethyl)amine] | 154.2
CCCCC/C=C\C/C=C\CCCCCCCCO[C@@H]1CN(C(=O)[C@@H](N)CCCN)C[C@H]1OCCCCCCCC/C=C\C/C=C\CCCCC [Compound 63, (3R,4R)-1-((S)-2,5-Diaminopentanoyl)-3,4-bis((9Z,12Z)-octadec-9,12-dienyloxy)pyrrolidine] | 143.0
